The results in this text go back to PubChem BioAssay (NCI).

Among the test systems are A498 renal; HL-60(TB) leukemia; HOP-62 NSCLC; HS 578T breast; HT29 colon; IGROV1 ovarian; MOLT-4 leukemia; NCI-H460 lung; NCI-H522 lung; SK-MEL-5 melanoma; SK-OV-3 ovarian; SN12C renal; TK-10 renal; MALME-3M melanoma.
Assay in all cases: growth of human tumour cells (NCI), 48 h

Molecules are shown by their SMILES.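 Protocol summary: plate cells (96-well), add compound at 5 concentrations, incubate 48 h, interpolate endpoints linearly. At the TGI there is no net growth.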

Consider `C=CC1OC(CCCOC(=O)C(C)(C)C)O[C@@H]1CC` (stereo not given in full), for which the TGI in the test on A498 renal, in the test with HL-60(TB) leukemia, in the test on HOP-62 NSCLC, in the test on HS 578T breast, in the test with HT29 colon and in the test with IGROV1 ovarian was above 100 µM in each case. Further, the TGI in the test with MOLT-4 leukemia, in the test on NCI-H460 lung, with NCI-H522 lung, in the test on SK-MEL-5 melanoma, in the test with SK-OV-3 ovarian and in the test with SN12C renal was above 100 µM throughout. The TGI with TK-10 renal is above 100 µM.
As for `Oc1ccc(-c2nc3cc(C(F)(F)F)ccc3n2CC2CCCN3CCCCC23)cc1` (stereo not given), the TGI with A498 renal came out at 29.3 µM; with HL-60(TB) leukemia, 12.3 µM; in the test with HOP-62 NSCLC, 26 µM; with HS 578T breast, 31.5 µM; with HT29 colon, 34.7 µM; with IGROV1 ovarian, 26 µM. For the same molecule, the TGI in the test on MOLT-4 leukemia is 33.5 µM; with NCI-H460 lung, 28.3 µM; in the test with NCI-H522 lung it was 29 µM; with SK-MEL-5 melanoma, 27.7 µM; with SK-OV-3 ovarian, 27.6 µM; in the test with TK-10 renal, 30.5 µM.
Consider `C/C=C(/C)C(=O)O[C@@H]1c2c(C)coc2C[C@H]2CC[C@H](O)[C@H](C)[C@]21C`, for which the TGI in the test with HL-60(TB) leukemia was 87 µM; in the test on HOP-62 NSCLC, above 100 µM; in the test with HS 578T breast, above 100 µM; with HT29 colon, above 100 µM; in the test on IGROV1 ovarian, above 100 µM; with MALME-3M melanoma, 77.9 µM. For the same molecule, the TGI in the test with MOLT-4 leukemia, in the test with NCI-H460 lung, with NCI-H522 lung, in the test with SK-MEL-5 melanoma, in the test on SK-OV-3 ovarian and in the test on SN12C renal was above 100 µM each time. This molecule displayed a TGI in the test with TK-10 renal above 100 µM.
As to `C=C(C)CCC1CCCCC(CN(C)C)C1=O` (stereo not given), the TGI in the test on A498 renal, with HL-60(TB) leukemia, with HOP-62 NSCLC, in the test with HS 578T breast, in the test with HT29 colon and in the test on IGROV1 ovarian was above 100 µM throughout. The TGI in the test on MOLT-4 leukemia was above 100 µM; in the test on NCI-H460 lung, above 100 µM; in the test on NCI-H522 lung it was 27.2 µM; with SK-MEL-5 melanoma, above 100 µM; in the test on SK-OV-3 ovarian, above 100 µM; in the test with SN12C renal, above 100 µM. The molecule further had a TGI in the test on TK-10 renal above 100 µM.
For `COC(=O)NCCc1[nH]nc2c1C(=O)C=C(OC)C2=O`, the TGI with HL-60(TB) leukemia is 44 µM; with HOP-62 NSCLC, 36 µM; in the test with HS 578T breast, 88.1 µM; with HT29 colon, above 100 µM; in the test with IGROV1 ovarian, 34.9 µM; with MALME-3M melanoma it was 28.8 µM. Also, the TGI in the test with MOLT-4 leukemia was 46.4 µM; in the test with NCI-H460 lung, above 100 µM; in the test on NCI-H522 lung, 44.3 µM; in the test with SK-MEL-5 melanoma, 28.9 µM; with SK-OV-3 ovarian, above 100 µM; in the test with SN12C renal, 38.8 µM. This molecule came in with a TGI with TK-10 renal above 100 µM.
As to `COc1ccc(C(=O)N2CCN(c3ccc4c(c3)OCC(=O)N4)CC2)cc1`, the TGI in the test on HL-60(TB) leukemia, in the test with HOP-62 NSCLC, in the test with HS 578T breast, in the test on HT29 colon, in the test with IGROV1 ovarian and with MALME-3M melanoma was above 100 µM throughout. Besides, the TGI in the test on MOLT-4 leukemia, in the test on NCI-H460 lung, with NCI-H522 lung, in the test with SK-MEL-5 melanoma, in the test on SK-OV-3 ovarian and in the test on SN12C renal was above 100 µM throughout. This molecule showed a TGI in the test with TK-10 renal above 100 µM.
`O=C1Oc2ccccc2C(=O)/C1=C/N1C(=O)/C(=C/c2ccc([N+](=O)[O-])cc2)SC1=S`: the TGI in the test on A498 renal was 27.6 µM; with HL-60(TB) leukemia, above 100 µM; in the test on HOP-62 NSCLC it was 40.8 µM; in the test on HS 578T breast it was 34.3 µM; with HT29 colon, above 100 µM; with IGROV1 ovarian it was above 100 µM. Moreover, the TGI in the test with MALME-3M melanoma is above 100 µM; with MOLT-4 leukemia, above 100 µM; in the test on NCI-H460 lung, 57.8 µM; with NCI-H522 lung it was 70.1 µM; in the test with SK-MEL-5 melanoma, 46.4 µM; with SK-OV-3 ovarian, 89.5 µM. Besides, the TGI in the test with SN12C renal amounted to 51.6 µM.
Turning to `CC1=C(C2=C(C)C(=O)C(=O)c3cc(C)ccc32)c2ccc(C)cc2C(=O)C1=O`, the TGI was 3.25 µM in the test with A498 renal; above 100 µM in the test with HL-60(TB) leukemia; 2.59 µM in the test on HOP-62 NSCLC; 0.863 µM in the test on HS 578T breast; 0.705 µM in the test with HT29 colon; 0.435 µM in the test with MALME-3M melanoma. Moreover, the TGI with NCI-H460 lung worked out at 0.531 µM; in the test on NCI-H522 lung, 0.631 µM; in the test on SK-MEL-5 melanoma, 0.374 µM; with SK-OV-3 ovarian, 3.07 µM; with SN12C renal, 0.314 µM; in the test on TK-10 renal, 1.2 µM.
As to `CCOC(=O)c1c(C)n(Cc2ccccc2)c2c1cc(O)c1[nH]c3c(c12)CCCC3`, the TGI with HL-60(TB) leukemia came to 5.52 µM; in the test on HOP-62 NSCLC it was 24.6 µM; in the test with HS 578T breast, 7.97 µM; in the test with HT29 colon it was 26.4 µM; with IGROV1 ovarian, 15.6 µM; with MALME-3M melanoma it was 15.6 µM. For the same molecule, the TGI was 12.6 µM with MOLT-4 leukemia; 7.32 µM in the test with NCI-H460 lung; 2.58 µM in the test on NCI-H522 lung; 15 µM in the test on SK-MEL-5 melanoma; 24.5 µM in the test with SK-OV-3 ovarian; 17.8 µM in the test on SN12C renal. Besides, in the test on TK-10 renal, the TGI was determined as 23.6 µM.
